A short description of series [1]: octanol-water partition coefficient (Log P) at 25° C., shake flask method. Conditions: for logP: octanol/water; for Log P: octanol-water partition coefficient at 25° C.
For series [2] the following is noted: conjugate acid in water at 25° C.; cited from earlier work.

For `Cc1nccn1C` [1,2-dimethyl-1,3-diazole], the logP in series [1] is 0.11. As to `Cc1cccnc1` [β-picoline], the “Log P” value in series [1] was found to be 1.2. As to `C1CNCCN1` [Piperazine, piperazine], the “Log P” value in series [1] is −1.5. Consider `CCCN(CCC)CCC` [Tripropylamine, tripropylamine], for which the “Log P” value in series [1] was 2.79.

Turning to `Cn1ccnc1` [1-methyl-1,3-diazole], in series [2], the pKa was 6.95. Further, the logP in series [1] was -0.19. Take `Cc1ncc[nH]1` [2-methyl-1,3-diazole]: the log partition coefficient (Log P) in series [1] worked out at 0.24. Turning to `CC(O)CN(CC(C)O)CC(C)O` (centres unmarked) [triisopropanolamine], the logP in the series “physchem” was -0.015.

For `CCCCN(CCCC)CCCC` [Tributylamine, tributylamine], in series [1], the “Log P” value is on record as greater than 2.79 and the lipophilicity (logP) is greater than 2.79. As to `CCN(CC)CC` [Triethylamine, triethylamine], the logP in series [1] is 1.45.

The values are drawn from US10662555B2, “Polyimide fiber and method for producing polyimide fiber” (I.S.T Corporation, priority 2016, dated 2020).
